Source: patent US20240368668A1, “SUBSTRATES AND BIOMARKERS OF ADAMTS7” (The Broad Institute, Inc., priority 2021, published 2024)
Square brackets hold non-standard residues; d marks the D form. Ends that are not written are not given here. Met(O) = CS(=O)CC[C@H](N)C(=O)O

tested on: mouse ADAMTS7; assay: TMT10 TAILS N-terminomics, SMC2 experiment (process replicates, trypsin/AspN digest); format: cell-based; details: SMC2_TAILS HC; log fold change of N-terminal peptide, Ad-mADAMTS7 WT over EQ
Summary of the method: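 Full-length mouse ADAMTS7 (WT or E373Q mutant, C-terminal 3xFLAG) or luciferase was transduced via adenovirus, 50 MOI, into HCA-SMC (SMC1, SMC2) or HUVEC. SMC1: pooled media, technical triplicates 400 ug; SMC2: process triplicates 300 ug; HUVEC: process triplicates 200 ug, bFGF2 10 ng/ml.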

Substance | logFC.mWT.over.mEQ
LOXL1_218 (AVASAGVIYPYQPR; listed as Homo sapiens) | 1.83
LOXL2_45 (HQPQAPANVAKIQLR; listed as Homo sapiens) | 2.51
LTBP2_79 (VAGLQPVER; listed as Homo sapiens) | 1.62
LTBP2_250 (SAAGEGTLAR; listed as Homo sapiens) | 2.70
LTBP2_290 (QHVGLSR; listed as Homo sapiens) | 3.05
LTBP2_502 (LVENSVETRPPPWLPASPGHSLW; listed as Homo sapiens) | 2.85
LTBP3_103 (LTGSGFR; listed as Homo sapiens) | 5.72
LTBP3_208 (FLVPLGPGQISA; listed as Homo sapiens) | 1.53
MAP4_815 (AVASTGPSSR; listed as Homo sapiens) | 1.70
MAP4_816 (VASTGPSSR; listed as Homo sapiens) | 2.51
MMP1_100 (FVLTEGNPR; listed as Homo sapiens) | 2.39
MMP1_185 (FQPGPGIGG; listed as Homo sapiens) | 1.46
NBEA_1892 (LEKVAPLLR; listed as Homo sapiens) | 2.12
NID1_360 (FHQQHPQVI; listed as Homo sapiens) | 2.69
NID2_291 (HSSVPLGR; listed as Homo sapiens) | 3.16
NID2_951 (YAYPGAR; listed as Homo sapiens) | 2.80

Substance | logFC.mWT.over.mEQ
PAK4_141 (HSEAGGGSG; listed as Homo sapiens) | 1.78
PLIN3_75 (VSGAQPILSKL; listed as Homo sapiens) | 2.25
POSTN_727 (IITGPEIKYTR; listed as Homo sapiens) | 2.60
PPP1R18_295 (LSETLTR; listed as Homo sapiens) | 2.32
PTPRF_1859 (MRYEGVVDMFQTVKTLR; listed as Homo sapiens) | 2.59
QSOX1_210 (HKGVAVR; listed as Homo sapiens) | 1.69
SHC2_267 (VAKDPINQRACHIL; listed as Homo sapiens) | 1.85
SPOCK1_27 (LAGGAGPNHGNFL; listed as Homo sapiens) | 2.69
SRGN_59 (LLPGESNKIPR; listed as Homo sapiens) | 3.66
TNPO2_744 (VQ[Met(O)]VLNNLVEII[code n]RP[code n]TPKTLLE; listed as Homo sapiens) | 4.02
TNS1_236 (QEGLAGYQR; listed as Homo sapiens) | 2.08
TRGC2_86 (HRCIVRHENNK; listed as Homo sapiens) | 2.93
TTN_5975 (VKEPPVEFTKPL; listed as Homo sapiens) | 3.34
VAT1_42 (AASPPLLR; listed as Homo sapiens) | 2.95
VIM_314 (QESTEYR; listed as Homo sapiens) | 3.28
VIM_333 (LKGTNESLER; listed as Homo sapiens) | 3.84

same assay, conditions: SMC2_TAILS HC; log fold change, mWT over mEQ

Substance | logFC.mWT.over.mEQ
COL1A2_80 (QYDGKGVGLGPGPMGLMGPR; listed as Homo sapiens) | 1.15
COL1A2_270 (VGNAGPAGPAGPR; listed as Homo sapiens) | 3.47
COL1A2_305 (LTGAKGAAGLPGVAGAPGLPGPR; listed as Homo sapiens) | 1.92
COL1A2_630 (VGTAGPSGPSGLPGER; listed as Homo sapiens) | 2.33
COL1A2_866 (LLGAPGILGLPGSR; listed as Homo sapiens) | 3.22
COL1A2_960 (AGAPGPHGPVGPAGKHGNR; listed as Homo sapiens) | 2.87
COL1A2_1028 (LQGLPGIAGHHGDQGAPGSVGPAGPR; listed as Homo sapiens) | 1.98
COL4A2_71 (YNGPPGLQGFPGLQGR; listed as Homo sapiens) | 1.70
COL18A1_1505 (LQPPVVQLHDSNPYPR; listed as Homo sapiens) | 1.47

same assay, conditions: log fold change, ADAMTS7 WT over EQ

Substance | logFC.mWT.over.mEQ
SERBP1_56 (QAAAQTNSNAAGKQLR; listed as Homo sapiens) | 4.06
SRGN_59 (LLPGESNKIPR; listed as Homo sapiens) | 4.33
THBS2_290 (LSENLKR; listed as Homo sapiens) | 4.05
VIM_314 (QESTEYR; listed as Homo sapiens) | 2.60
VIM_333 (LKGTNESLER; listed as Homo sapiens) | 4.39
